# In patent US8785488B2 (Exelixis Patent Company LLC, priority 2009, dated 2014):
# Key:
# [1] = target: T1, human TGR5 (h-TGR5) (Homo sapiens, UniProt Q8TDU6); experiment: TGR5/CRE-Luciferiase Assay (HEK 293 hTGR5/CRE-Luc cells); assay type: cell-based; details: h-TGR5 CRE-Luc EC50, Table 1; read-out: CRE-Luc (EC50)
# T1 construct: expressed in transfected cells
# T1 sequence (Q8TDU6 1-330): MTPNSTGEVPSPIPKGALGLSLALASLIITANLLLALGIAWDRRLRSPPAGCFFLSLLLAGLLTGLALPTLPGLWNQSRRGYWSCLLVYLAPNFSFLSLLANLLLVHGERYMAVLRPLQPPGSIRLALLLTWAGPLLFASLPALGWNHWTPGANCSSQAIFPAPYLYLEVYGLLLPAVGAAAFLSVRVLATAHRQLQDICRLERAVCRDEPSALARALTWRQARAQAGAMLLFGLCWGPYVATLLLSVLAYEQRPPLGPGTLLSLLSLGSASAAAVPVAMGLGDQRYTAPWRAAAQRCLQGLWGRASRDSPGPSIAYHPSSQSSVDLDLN
# How it was run: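 HEK293 cells stably carrying hTGR5 and a CRE-luciferase reporter were exposed to serially diluted compounds (diluted in DMEM with 5% DMSO) for 6 h. Cells were then lysed in luciferase buffer, luminescence was read, and EC50 values were derived from dose-response curves.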
# [2] = target: T2, h-TGR5 (Homo sapiens, UniProt Q8TDU6); experiment: TGR5 cAMP Assay using Cisbio cAMP Dynamic2 htrf kit (hTGR5CRE-luc HEK 293 cells); assay type: cell-based; details: h-TGR5 cAMP EC50, Table 1; read-out: cAMP (EC50)
# T2 construct: expressed in transfected cells
# T2 sequence (Q8TDU6 1-330): T1 sequence (Q8TDU6 1-330)
# Method: Compounds were diluted in DPBS with 5% DMSO (8-point serial dilution by half logs) in a 96-well plate and 1 μL was transferred to a 384-well assay plate in quadruplicate. The d2-cAMP and anti-cAMP Ab-cryptate stock solution were prepared as per the instructions in the Cisbio™ (Bedford, Mass.) kit. […] Cells were adjusted to 0.44×10^6 cells/ml followed by addition of IBMX to a final concentration of 0.5 mM. The cells were then mixed with d2-cAMP solution (7.1 mL cells+100 ul d2-cAMP) and 4000 cells (9 μL) were transferred to each well of the 384-well assay plate. Cells without d2-cAMP were added to eight wells as a negative control. The plate was covered and incubated at room temp for 30 min. Then 10 μL of Ab-cryptate solution was added to each well of the assay plate and incubated for 1 hr. The plate was read on an EnVision™ plate reader (Perkin-Elmer, Waltham, Mass.) and the DeltaF value was calculated as per the instructions in the Cisbio™ kit.
# In the following tables, EC50 values determined according to the TGR5 cAMP Assay described herein (cAMP); EC50 values determined according to the TGR5/CRE-Luciferiase Assay described herein (CRE-Luc). […] The following compounds in Tables 1 and 2 were made by using procedures described in the above Schemes and Examples, and, where applicable, by making any necessary substitutions of known materials that one skilled in the art would ordinarily understand how to do.
Compound,EC50 [1] [nM],EC50 [2] [nM]
CC(C)(c1ccc(Cl)c(OCCCN2CCOCC2)c1)c1cnc(SCc2c(F)cccc2Cl)n1-c1ccc(F)cc1,100 to 1000,100 to 1000
CC(C)(c1ccc(F)c(F)c1)c1cnc(SCc2c(F)cc(C(=O)O)cc2F)n1-c1ccc(F)cc1,100 to 1000,< 100
CC(C)(c1ccc(Cl)c(Cl)c1)c1cnc(COc2c(F)cc(C(=O)O)cc2Cl)n1-c1ccc(F)cc1,100 to 1000,100 to 1000
COc1cc(C(C)(C)c2cnc(SCc3c(F)cc(NC(=O)[C@@H](N)CC(=O)O)cc3Cl)n2-c2ccc(F)cc2)ccc1Cl,< 100,< 100
"4-({[5-{1-[4-chloro-3-(methyloxy)phenyl]-1- methylethyl}-1-(4-fIuorophenyl)-1H-imidazol- 2-yl]thio}methyl)-3,5-difluoro-N-[(pyrrolidin- 1-ylamino)carbonyl]benzenesulfonamide",< 100,< 100
COc1cc(C(C)(C)c2cnc(SCc3cc(OCCNC(=N)N)c(Cl)cc3F)n2-c2ccc(F)cc2)ccc1Cl [1-(2-{[2-chloro-5-({[5-{1-[4-chloro-3-(methyloxy)phenyl]-1-methylethyl}-1-(4-fluorophenyl)-1H-imidazol-2-yl]thio}methyl)-4-fluorophenyl]oxy}ethyl)guanidine],100 to 1000,< 100
"COc1cc(C(C)(C)c2cnc(SCc3c(F)cc(OCCNC(=N)N)cc3F)n2-c2ccc(F)cc2)ccc1F [1-(2-{[3,5-difluoro-4-({[5-{1-[4-fluoro-3-(methyloxy)phenyl]-1-methylethyl}-1-(4-fluorophenyl)-1H-imidazol-2-yl]thio}methyl)phenyl]oxy}ethyl)guanidine]",< 100,< 100
COc1cc(C(C)(C)c2cnc(SCc3c(F)cc(OCCNC(=N)N)cc3Cl)n2-c2ccc(F)cc2)ccc1Cl [1-(2-{[3-chloro-4-({[5-{1-[4-chloro-3-(methyloxy)phenyl]-1-methylethyl}-1-(4-fluorophenyl)-1H-imidazol-2-yl]thio}methyl)-5-fluorophenyl]oxy}ethyl)guanidine],< 100,< 100
COc1cc(C(C)(C)c2cnc(SCc3c(F)cc(OCCNC(=N)N)cc3Cl)n2-c2ccc(F)cc2)ccc1F [1-(2-{[3-chloro-5-fluoro-4-({[5-{1-[4-fluoro-3-(methyloxy)phenyl]-1-methylethyl}-1-(4-fluorophenyl)-1H-imidazol-2-yl]thio}methyl)phenyl]oxy}ethyl)guanidine],< 100,< 100
"COc1cc(C(C)(C)c2cnc(SCc3c(F)cc(OCCNC(=N)N)cc3F)n2-c2ccc(F)cc2)ccc1Cl [1-(2-{[4-({[5-{1-[4-chloro-3-(methyloxy)phenyl]-1-methylethyl}-1-(4-fluorophenyl)-1H-imidazol-2-yl]thio}methyl)-3,5-difluorophenyl]oxy}ethyl)guanidine]",< 100,< 100
COc1cc(C(C)(C)c2cnc(SCc3c(F)ccc(OCCCNC(=N)N)c3Cl)n2-c2ccc(F)cc2)ccc1F [1-(3-{[2-chloro-4-fluoro-3-({[5-{1-[4-fluoro-3-(methyloxy)phenyl]-1-methylethyl}-1-(4-fluorophenyl)-1H-imidazol-2-yl]thio}methyl)phenyl]oxy}propyl)guanidine],< 100,< 100
"COc1cc(C(C)(C)c2cnc(SCc3c(F)cc(OCCCNC(=N)N)cc3F)n2-c2ccc(F)cc2)ccc1F [1-(3-{[3,5-difluoro-4-({[5-{1-[4-fluoro-3-(methyloxy)phenyl]-1-methylethyl}-1-(4-fluorophenyl)-1H-imidazol-2-yl]thio}methyl)phenyl]oxy}propyl)guanidine]",< 100,< 100
COc1cc(C(C)(C)c2cnc(SCc3c(F)cc(OCCCNC(=N)N)cc3Cl)n2-c2ccc(F)cc2)ccc1Cl [1-(3-{[3-chloro-4-({[5-{1-[4-chloro-3-(methyloxy)phenyl]-1-methylethyl}-1-(4-fluorophenyl)-1H-imidazol-2-yl]thio}methyl)-5-fluorophenyl]oxy}propyl)guanidine],< 100,< 100
COc1cc(C(C)(C)c2cnc(SCc3c(F)cc(OCCCNC(=N)N)cc3Cl)n2-c2ccc(F)cc2)ccc1F [1-(3-{[3-chloro-5-fluoro-4-({[5-{1-[4-fluoro-3-(methyloxy)phenyl]-1-methylethyl}-1-(4-fluorophenyl)-1H-imidazol-2-yl]thio}methyl)phenyl]oxy}propyl)guanidine],< 100,< 100
"COc1cc(C(C)(C)c2cnc(SCc3c(F)cc(OCCCNC(=N)N)cc3F)n2-c2ccc(F)cc2)ccc1Cl [1-(3-{[4-({[5-{1-[4-chloro-3-(methyloxy)phenyl]-1-methylethyl}-1-(4-fluorophenyl)-1H-imidazol-2-yl]thio}methyl)-3,5-difluorophenyl]oxy}propyl)guanidine]",< 100,< 100
"COc1cc(-n2c(C(C)(C)c3ccc(F)c(Cl)c3)cnc2SCc2c(F)cc(OCCNC(=N)N)cc2F)ccc1F [1-[2-({4-[({5-[1-(3-chloro-4-fluorophenyl)-1-methylethyl]-1-[4-fluoro-3-(methyloxy)phenyl]-1H-imidazol-2-yl}thio)methyl]-3,5-difluorophenyl}oxy)ethyl]guanidine]",< 100,< 100
"CC(=O)N1CCC(CSc2ncc(C(C)(C)c3ccc(Cl)c(Cl)c3)n2-c2ccc(F)cc2)CC1 [1-acetyl-4-[({5-[1-(3,4-dichlorophenyl)-1-methylethyl]-1-(4-fluorophenyl)-1H-imidazol-2-yl}thio)methyl]piperidine]",< 100,100 to 1000
"COc1cc(C(C)(C)c2cnc(SCc3c(F)cc(C#CCNC(=N)N)cc3F)n2-c2ccc(F)cc2)ccc1Cl [1-{3-[4-({[5-{1-[4-chloro-3-(methyloxy)phenyl]-1-methylethyl}-1-(4-fluorophenyl)-1H-imidazol-2-yl]thio}methyl)-3,5-difluorophenyl]prop-2-yn-1-yl}guanidine]",< 100,< 100
"COc1cc(C(C)(C)c2cnc(SCc3c(F)cc(CCCNC(=N)N)cc3F)n2-c2ccc(F)cc2)ccc1Cl [1-{3-[4-({[5-{1-[4-chloro-3-(methyloxy)phenyl]-1-methylethyl}-1-(4-fluorophenyl)-1H-imidazol-2-yl]thio}methyl)-3,5-difluorophenyl]propyl}guanidine]",< 100,< 100
"COc1cc(C(C)(C)c2cnc(SCc3c(F)cc(CCCCNC(=N)N)cc3F)n2-c2ccc(F)cc2)ccc1Cl [1-{4-[4-({[5-{1-[4-chloro-3-(methyloxy)phenyl]-1-methylethyl}-1-(4-fluorophenyl)-1H-imidazol-2-yl]thio}methyl)-3,5-difluorophenyl]butyl}guanidine]",< 100,< 100
"COc1cc(C(C)(C)c2cnc(SCc3c(F)cc(CCCCCNC(=N)N)cc3F)n2-c2ccc(F)cc2)ccc1Cl [1-{5-[4-({[5-{1-[4-chloro-3-(methyloxy)pheny1]-1-methylethyl}-1-(4-fluorophenyl)-1H-imidazol-2-yl]thio}methyl)-3,5-difluorophenyl]pentyl}guanidine]",< 100,< 100
"CC(C)(c1ccc(Cl)c(Cl)c1)c1cnc(SCc2cc(S(N)(=O)=O)c(Cl)cc2Cl)n1-c1ccc(F)cc1 [2,4-dichloro-5-[({5-[1-(3,4-dichlorophenyl)-1-methylethyl]-1-(4-fluorophenyl)-1H-imidazol-2-yl}thio)methyl]benzenesulfonamide]",< 100,100 to 1000
COc1cc(C(C)(C)c2cnc(SCc3ccc(C#CCNC(=N)N)c(C(=O)O)c3)n2-c2ccc(F)cc2)ccc1Cl [2-(3-{[amino(imino)methyl]amino}prop-1-yn-1-yl)-5-({[5-{1-[4-chloro-3-(methyloxy)phenyl]-1-methylethyl}-1-(4-fluorophenyl)-1H-imidazol-2-yl]thio}methyl)benzoic acid],< 100,< 100
COc1cc(C(C)(C)c2cnc(SCc3ccc(S(=O)(=O)NC(=O)NCC(=O)O)cc3Cl)n2-c2ccc(F)cc2)ccc1Cl [N-[({[3-chloro-4-({[5-{1-[4-chloro-3-(methyloxy)phenyl]-1-methylethyl}-1-(4-fluorophenyl)-1H-imidazol-2-yl]thio}methyl)phenyl]sulfonyl}amino)carbonyl]glycine],,100 to 1000
